Reference: PubChem BioAssay (NCI)
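Protocol summary: plate cells (96-well), add compound at 5 concentrations, incubate 48 h, interpolate endpoints linearly. GI50 is the concentration that inhibits growth by half. TGI: total growth inhibition.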

How the values were obtained:
Test in all cases: NCI tumour cell line growth inhibition, 48 h
[1] = system: 786-0 renal
[2] = system: A549 NSCLC
[3] = system: ACHN renal
[4] = system: BT-549 breast
[5] = system: CAKI-1 renal
[6] = system: CCRF-CEM leukemia
[7] = system: DU-145 prostate
[8] = system: EKVX NSCLC
[9] = system: HCC-2998 colon
[10] = system: HCT-15 colon
[11] = system: HL-60(TB) leukemia
[12] = system: HOP-62 NSCLC
[13] = system: HOP-92 NSCLC
[14] = system: HT29 colon
[15] = system: IGROV1 ovarian
[16] = system: K-562 leukemia
[17] = system: KM12 colon
[18] = system: LOX IMVI melanoma
[19] = system: M14 melanoma
[20] = system: MDA-MB-231 breast
[21] = system: MDA-MB-435
[22] = system: MOLT-4 leukemia
[23] = system: NCI-H226 lung
[24] = system: NCI-H23 lung
[25] = system: NCI-H460 lung
[26] = system: NCI-H522 lung
[27] = system: NCI/ADR-RES ovarian
[28] = system: OVCAR-3 ovarian
[29] = system: OVCAR-4 ovarian
[30] = system: OVCAR-5 ovarian
[31] = system: OVCAR-8 ovarian
[32] = system: PC-3 prostate
[33] = system: RPMI-8226 leukemia
[34] = system: RXF 393 renal
[35] = system: SF-268 CNS
[36] = system: SF-295 CNS
[37] = system: SF-539 CNS
[38] = system: SK-MEL-2 melanoma
[39] = system: SK-MEL-28 melanoma
[40] = system: SK-MEL-5 melanoma
[41] = system: SK-OV-3 ovarian
[42] = system: SN12C renal
[43] = system: SNB-19 CNS
[44] = system: SNB-75 CNS
[45] = system: SR leukemia
[46] = system: TK-10 renal
[47] = system: U251 CNS
[48] = system: UACC-257 melanoma
[49] = system: UACC-62 melanoma
[50] = system: UO-31 renal

`CN(C)CCN=Cc1c2ccccc2c(=O)n2c1oc1ccccc12` was tested, and the GI50 [1] was 11.6 µM, the TGI [1] was 25.3 µM and the GI50 [2] was 4.13 µM. It also gave a TGI [2] of 20.7 µM, a GI50 [3] of 2.63 µM and a TGI [3] of 11.2 µM. The GI50 [4] was 7.61 µM, the TGI [4] was 21.1 µM and the GI50 [5] was 3.62 µM. It also gave a TGI [5] of 15.2 µM, a GI50 [6] of 4.36 µM and a TGI [6] of 62.8 µM. For the same compound, the GI50 [7] was 2.97 µM, the TGI [7] was 14.5 µM and the GI50 [8] was 6.76 µM. For the same compound, the TGI [8] was 21.4 µM, the GI50 [9] was 12.2 µM and the TGI [9] was 24.6 µM. For the same compound, the GI50 [10] was 5.37 µM, the TGI [10] was 22.1 µM and the GI50 [11] was 10.9 µM. It also gave a TGI [11] of 55 µM, a GI50 [12] of 12.1 µM and a TGI [12] of 26.7 µM. The GI50 [13] was 12.3 µM, the TGI [13] was 44.1 µM and the GI50 [14] was 4.56 µM. For the same compound, the TGI [14] was 19.4 µM, the GI50 [15] was 10.6 µM and the TGI [15] was 27.6 µM. For the same compound, the GI50 [16] was 11 µM, the TGI [16] was > 100 µM and the GI50 [17] was 8.8 µM. The TGI [17] was 21.7 µM, the GI50 [18] was 4.18 µM and the TGI [18] was 16.1 µM. The GI50 [19] was 15.2 µM, the TGI [19] was 31.2 µM and the GI50 [20] was 12.5 µM. It also gave a TGI [20] of 29 µM, a GI50 [21] of 10.1 µM and a TGI [21] of 21.7 µM. For the same compound, the GI50 [22] was 4.2 µM, the TGI [22] was > 100 µM and the GI50 [23] was 10 µM. For the same compound, the TGI [23] was 36.7 µM, the GI50 [24] was 10.5 µM and the TGI [24] was 23 µM. The GI50 [25] was 2.94 µM, the TGI [25] was 11.7 µM and the GI50 [26] was 16.5 µM. For the same compound, the TGI [26] was 38 µM, the GI50 [27] was 13.7 µM and the TGI [27] was 32.6 µM. For the same compound, the GI50 [28] was 11.7 µM, the TGI [28] was 24 µM and the GI50 [29] was 18.4 µM. The TGI [29] was 51.6 µM, the GI50 [30] was 15.7 µM and the TGI [30] was 30.5 µM. The GI50 [31] was 5.89 µM, the TGI [31] was 21.5 µM and the GI50 [32] was 11.5 µM. For the same compound, the TGI [32] was 29.9 µM, the GI50 [33] was 11.3 µM and the TGI [33] was > 100 µM. It also gave a GI50 [34] of 12.7 µM, a TGI [34] of 28.6 µM and a GI50 [35] of 5.56 µM. The TGI [35] was 20 µM, the GI50 [36] was 2.89 µM and the TGI [36] was 9.71 µM. It also gave a GI50 [37] of 2.96 µM, a TGI [37] of 8.81 µM and a GI50 [38] of 16.6 µM. The TGI [38] was 48.2 µM, the GI50 [39] was 10.5 µM and the TGI [39] was 23.1 µM. For the same compound, the GI50 [40] was 2.89 µM, the TGI [40] was 16.1 µM and the GI50 [41] was 8.44 µM. For the same compound, the TGI [41] was 24.3 µM, the GI50 [42] was 3.81 µM and the TGI [42] was 17.1 µM. It also gave a GI50 [43] of 7.45 µM, a TGI [43] of 21.4 µM and a GI50 [44] of 7.55 µM. For the same compound, the TGI [44] was 22.2 µM, the GI50 [45] was 3.7 µM and the TGI [45] was > 100 µM. For the same compound, the GI50 [46] was 3.44 µM, the TGI [46] was 14 µM and the GI50 [47] was 7.4 µM. For the same compound, the TGI [47] was 21 µM, the GI50 [48] was 14.2 µM and the TGI [48] was 30.5 µM. For the same compound, the GI50 [49] was 10.8 µM, the TGI [49] was 23.6 µM and the GI50 [50] was 6.67 µM. For the same compound, the TGI [50] was 28.6 µM.
